According to patent US8936807B2, “Use of the cathelicidin LL-37 and derivatives thereof for wound healing” (Lipopeptide AB, priority 2003, dated 2015):

Key:
Format in all cases: cell-based, human
HaCat cells [1] = assay: Proliferation and viability of HaCat cells measured by mitochondrial activity (WST-1); details: EGF 1.7 nM, 10% serum, 48 h
Experimental: (§1) HaCat cells were used for these experiments. HaCat cells are an immortalized human keratinocyte cell line (Boukamp et al., J Cell Biol 106:761-771, 1988), which is suitable for experimental keratinocyte research. HaCat cells were cultured in medium (DMEM, +10% FCS and PEST). Both types of cell cultures were treated with synthetic, bioactive LL-37 (lot YS 5253). In addition a mixture of LL-37 (114 μg/ml) and CPL-Galactolipid (0.2%) in medium containing serum at either 2 or 10% was added to evaluate the capacity to increase proliferation and inhibit cytotoxicity. Cells were harvested at different time-points (24 h, 48 h, 72 h and 96 h) and counted by flowcytometry (Becton-Dickinson) and stained by Trypan-Blue to evaluate viability. […] Proliferation and viability were also ascertained by measuring mitochondrial activity (WST-1, Roche, Cook et al. Anal Biochem 179:1-7, 1989).

HaCat cells [2] = assay: Proliferation of HaCat cells assessed by flowcytometry and Trypan-Blue; details: EGF 1.7 nM, 10% serum
Experimental: as §1, with “In addition a mixture of LL-37 (114 μg/ml) and CPL-Galactolipid (0.2%) in medium containing serum at either 2 or 10% was added to evaluate the capacity to increase proliferation and inhibit cytotoxicity.” left out

HaCat cells [3] = assay: Proliferation of HaCat cells assessed by 3H-Thymidine incorporation; details: 10% serum, 96 Hours; for Increased Proliferation (%): vs control 0 μg/ml
Experimental: HaCat cells were cultured in medium (DMEM, +10% FCS and PEST). HaCaT cells were plated in 96 well plates (Falcon, USA) at the concentration of 2000 cells per well. Cells were plated at −48 hours and stimulated with different concen-trations of synthetic LL-37, LL-36, and LL-38 peptide by hour 0 and after 48 hours.
The testing was done in one experiment with 6 wells in each condition. […] of ^3H-Thymidine (THYMIDINE, [METHYL-^3H]-740.0 GBq/mmol (20.00 Ci/mmol) 1.0 ml of Ethanol:Water, 7:3, Perkin Elmer Life Sciences Inc. Boston Mass., USA) was added to each well and incubated for 12-17 hours. Proliferation was evaluated by ^3H-Thymidine incorporation a liquid scintilator (MicroBeta Perkin Elmer Life Sciences Inc. Boston Mass., USA) after 72 and 96 hours.

**Q.** What does the source list for “EGF: EGF, the golden standard for epithelial cell proliferation, used at 1.7 nM [reference compound]”?
**A.** Absorbance (HaCat cells [1]): 1.107; Increased Proliferation (%) (HaCat cells [1]; vs baseline (-EGF)): 77%; Number of Cells (Mean) (HaCat cells [2]; 96 h): 42000; Increased Proliferation (%) (HaCat cells [2]; 96 h, vs baseline (-EGF)): 30%; Number of Cells (Mean) (HaCat cells [2]; no lipid, 72 h): 85050; Increased Proliferation (%) (HaCat cells [2]; no lipid, 72 h, vs baseline): 54%; Number of Cells (Mean) (HaCat cells [2]; with lipid 0.2%, 72 h): 87640; Increased Proliferation (%) (HaCat cells [2]; with lipid 0.2%, 72 h, vs baseline): 58%

**Q.** Which “Counts Per Minute (Mean)” value (HaCat cells [3]; LL-36 1.00 μg/ml) does the source give for “LLGDFFRKSKEKIGKEFKRIVQRIKDFLRNLVPRTE (Synthetic Peptide LL-36)” here?
**A.** 86253 Counts Per Minute

**Q.** What about the “Increased Proliferation (%)” value (HaCat cells [3]; LL-36 1.00 μg/ml) of the same substance?
**A.** 24%

**Q.** What about the “Counts Per Minute (Mean)” value (HaCat cells [3]; LL-36 5.00 μg/ml) of the same substance?
**A.** 116381 Counts Per Minute

**Q.** What about the “Increased Proliferation (%)” value (HaCat cells [3]; LL-36 5.00 μg/ml) of the same substance?
**A.** 68%

**Q.** And the “Counts Per Minute (Mean)” value (HaCat cells [3]; LL-36 10.00 μg/ml)?
**A.** 70157 Counts Per Minute

**Q.** What about the “Increased Proliferation (%)” value (HaCat cells [3]; LL-36 10.00 μg/ml) of the same substance?
**A.** 1%

**Q.** And the “Counts Per Minute (Mean)” value (HaCat cells [3]; LL-36 25.00 μg/ml)?
**A.** 72674 Counts Per Minute

**Q.** And the “Increased Proliferation (%)” value (HaCat cells [3]; LL-36 25.00 μg/ml)?
**A.** 5%

**Q.** What about the “Counts Per Minute (Mean)” value (HaCat cells [3]; LL-36 50.00 μg/ml) of the same substance?
**A.** 68560 Counts Per Minute

**Q.** And the “Increased Proliferation (%)” value (HaCat cells [3]; LL-36 50.00 μg/ml)?
**A.** -1%

**Q.** With “LLGDFFRKSKEKIGKEFKRIVQRIKDFLRNLVPRTESS (Synthetic Peptide LL-38)” as the substance, how does the “Counts Per Minute (Mean)” value (HaCat cells [3]; LL-38 1.00 μg/ml) read?
**A.** 82008 Counts Per Minute

**Q.** What about the “Increased Proliferation (%)” value (HaCat cells [3]; LL-38 1.00 μg/ml) of the same substance?
**A.** 4%

**Q.** What about the “Counts Per Minute (Mean)” value (HaCat cells [3]; LL-38 5.00 μg/ml) of the same substance?
**A.** 68694 Counts Per Minute

**Q.** What about the “Increased Proliferation (%)” value (HaCat cells [3]; LL-38 5.00 μg/ml) of the same substance?
**A.** −13%

**Q.** And the “Counts Per Minute (Mean)” value (HaCat cells [3]; LL-38 10.00 μg/ml)?
**A.** 57293 Counts Per Minute

**Q.** What about the “Increased Proliferation (%)” value (HaCat cells [3]; LL-38 10.00 μg/ml) of the same substance?
**A.** −28%

**Q.** What about the “Counts Per Minute (Mean)” value (HaCat cells [3]; LL-38 25.00 μg/ml) of the same substance?
**A.** 54294 Counts Per Minute

**Q.** What about the “Increased Proliferation (%)” value (HaCat cells [3]; LL-38 25.00 μg/ml) of the same substance?
**A.** −31%

**Q.** What about the “Counts Per Minute (Mean)” value (HaCat cells [3]; LL-38 50.00 μg/ml) of the same substance?
**A.** 48701 Counts Per Minute

**Q.** What about the “Increased Proliferation (%)” value (HaCat cells [3]; LL-38 50.00 μg/ml) of the same substance?
**A.** −39%
